PubChem BioAssay AID256 (DTP/NCI, 2004)
“And” between values parts separate entries of the source, which are not always exact repeats. Identical values can stand only once. Toxic doses and inconclusive results are not listed.

Tested on: CD2F1 mice, L1210 leukemia ip, survival T/C
Test: NCI In Vivo Anticancer Drug Screen. Data for tumor model L1210 Leukemia (intraperitoneal) in CD2F1 (CDF1) mice
Settings: higher = longer survival
How it was run: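 Antitumor effect is scored in animals hosting a serially transplanted tumor. Values compare compound-dosed animals against vehicle-only controls as a simple quotient.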

[1] = endpoint: mean survival time, dose: 100.0 mg/kg/injection, schedule: Q01DX001 (ip), vehicle: saline
[2] = endpoint: mean survival time, dose: 200.0 mg/kg/injection, schedule: Q01DX001 (ip), vehicle: saline
[3] = endpoint: mean survival time, dose: 400.0 mg/kg/injection, schedule: Q01DX001 (ip), vehicle: saline
[4] = endpoint: mean survival time, dose: 100.0 mg/kg/injection, schedule: Q04DX003 (ip), vehicle: saline
[5] = endpoint: mean survival time, dose: 200.0 mg/kg/injection, schedule: Q04DX003 (ip), vehicle: saline

For `CSc1ncc(Br)c(Sc2nc(N)nc3nc[nH]c23)n1`, the T/C (endpoint: mean survival time, dose: 2.2 mg/kg/injection, schedule: Q01DX001 (ip), vehicle: saline with Tween-80) was 123 % of control, the T/C (endpoint: mean survival time, dose: 3.0 mg/kg/injection, schedule: Q01DX001 (ip), vehicle: saline with Tween-80) was 117 % of control and the T/C (endpoint: mean survival time, dose: 3.4 mg/kg/injection, schedule: Q01DX001 (ip), vehicle: saline with Tween-80) was 123 % of control. For the same compound, the T/C (endpoint: mean survival time, dose: 4.4 mg/kg/injection, schedule: Q01DX001 (ip), vehicle: saline with Tween-80) was 122 % of control.

With `NC(=O)c1ncn(CCCCCO)c1N` the T/C (endpoint: mean survival time, dose: 100.0 mg/kg/injection, schedule: Q01DX001 (ip), vehicle: other) was 91 % of control, the T/C (endpoint: mean survival time, dose: 200.0 mg/kg/injection, schedule: Q01DX001 (ip), vehicle: other) was 103 % of control and the T/C (endpoint: mean survival time, dose: 400.0 mg/kg/injection, schedule: Q01DX001 (ip), vehicle: other) was 101 % of control.

For `CCOC(=O)C(Cc1ccc(OC)cc1)P(=O)(OCC)OCC` (stereo not given), the T/C [1] was 106 % of control, the T/C [2] was 108 % of control and the T/C [3] was 101 % of control.

With `CSCC(N)C(=O)O` (stereo not given) the T/C (endpoint: mean survival time, dose: 100.0 mg/kg/injection, schedule: Q01DX009 (ip), vehicle: saline) was 103 % of control, the T/C (endpoint: mean survival time, dose: 200.0 mg/kg/injection, schedule: Q01DX009 (ip), vehicle: saline) was 103 % of control and the T/C (endpoint: mean survival time, dose: 400.0 mg/kg/injection, schedule: Q01DX009 (ip), vehicle: saline) was 97 % of control.

For `Cc1ccc(C(=O)CCl)c(C)c1`, the T/C (endpoint: mean survival time, dose: 25.0 mg/kg/injection, schedule: Q04DX003 (ip), vehicle: Klucel (hydroxypropylcellulose) (HPC)) was 102 % of control and the T/C (endpoint: mean survival time, dose: 50.0 mg/kg/injection, schedule: Q04DX003 (ip), vehicle: Klucel (hydroxypropylcellulose) (HPC)) was 103 % of control.

For `C=C(C)[C@@H]1CC[C@]2(CO)CC[C@]3(C)[C@H](CC[C@@H]4[C@@]5(C)CC[C@H](O)C(C)(C)[C@@H]5CC[C@]43C)[C@@H]12`, the T/C [1] was 98 % of control, the T/C [2] was 98 % of control and the T/C [3] was 98 % of control.

For `CCOC(=O)C(CCCl)C(=O)OCC`, the T/C [1] was 104 % of control, the T/C [2] was 104 % of control and the T/C [3] was 101 % of control.

In the case of `O=P1(N(CCCl)CCCl)NCC2(O1)C1CC3CC(C1)CC2C3` (stereo not given), the T/C (endpoint: mean survival time, dose: 15.6 mg/kg/injection, schedule: Q01DX001 (ip), vehicle: distilled water + Tween-80) is reported as 101 % of control, the T/C (endpoint: mean survival time, dose: 31.3 mg/kg/injection, schedule: Q01DX001 (ip), vehicle: distilled water + Tween-80) is reported as 96 % of control and the T/C (endpoint: mean survival time, dose: 62.5 mg/kg/injection, schedule: Q01DX001 (ip), vehicle: distilled water + Tween-80) is reported as 101 % of control. The T/C (endpoint: mean survival time, dose: 125.0 mg/kg/injection, schedule: Q01DX001 (ip), vehicle: distilled water + Tween-80) was 96 % of control, the T/C (endpoint: mean survival time, dose: 250.0 mg/kg/injection, schedule: Q01DX001 (ip), vehicle: distilled water + Tween-80) was 96 % of control and the T/C (endpoint: mean survival time, dose: 500.0 mg/kg/injection, schedule: Q01DX001 (ip), vehicle: distilled water + Tween-80) was 91 % of control.

With `O=C(CCl)Nc1ccc(SSc2ccc(NC(=O)CCl)cc2)cc1` the T/C (endpoint: mean survival time, dose: 25.0 mg/kg/injection, schedule: Q01DX009 (ip), vehicle: Klucel (hydroxypropylcellulose) (HPC)) was 95 % of control, the T/C (endpoint: mean survival time, dose: 50.0 mg/kg/injection, schedule: Q01DX009 (ip), vehicle: Klucel (hydroxypropylcellulose) (HPC)) was 96 % of control and the T/C (endpoint: mean survival time, dose: 100.0 mg/kg/injection, schedule: Q01DX009 (ip), vehicle: Klucel (hydroxypropylcellulose) (HPC)) was 93 % of control.

For `CC(C)(CNC1=NCCO1)NC1=NCCO1`, the T/C [4] was 104 % of control and the T/C [5] was 104 % of control.

In the case of `CCC1(O)C(=O)OCc2c1cc1n(c2=O)Cc2cc3cc(OC)c(OC)cc3nc2-1` (stereo not given), the T/C (endpoint: median survival time, dose: 6.25 mg/kg/injection, schedule: Q04DX002 (ip), vehicle: saline with Tween-80) is reported as 103 % of control, the T/C (endpoint: median survival time, dose: 12.5 mg/kg/injection, schedule: Q04DX002 (ip), vehicle: saline with Tween-80) is reported as 101 % of control and the T/C (endpoint: median survival time, dose: 25.0 mg/kg/injection, schedule: Q04DX002 (ip), vehicle: saline with Tween-80) is reported as 103 % of control. For the same compound, the T/C (endpoint: median survival time, dose: 50.0 mg/kg/injection, schedule: Q04DX002 (ip), vehicle: saline with Tween-80) was 94 % of control.

For `O=C(CCc1ccc(S(=O)(=O)F)cc1)Nc1cccc(-c2nc3nc[nH]c(=O)c3[nH]2)c1`, the T/C (endpoint: mean survival time, dose: 50.0 mg/kg/injection, schedule: Q01DX001 (ip), vehicle: saline with Tween-80) was 94 % of control, the T/C (endpoint: mean survival time, dose: 100.0 mg/kg/injection, schedule: Q01DX001 (ip), vehicle: saline with Tween-80) was 94 % of control and the T/C (endpoint: mean survival time, dose: 200.0 mg/kg/injection, schedule: Q01DX001 (ip), vehicle: saline with Tween-80) was 90 % of control.

In the case of `CSc1ncnc2c1nnn2C1OC(COC(=O)c2ccccc2)C(OC(=O)c2ccccc2)C1OC(=O)c1ccccc1` (stereo not given), the T/C (endpoint: median survival time, dose: 12.5 mg/kg/injection, schedule: Q01DX005 (ip), vehicle: Klucel (hydroxypropylcellulose) (HPC)) is reported as 94 % of control, the T/C (endpoint: median survival time, dose: 25.0 mg/kg/injection, schedule: Q01DX005 (ip), vehicle: Klucel (hydroxypropylcellulose) (HPC)) is reported as 104 % of control and the T/C (endpoint: median survival time, dose: 50.0 mg/kg/injection, schedule: Q01DX005 (ip), vehicle: Klucel (hydroxypropylcellulose) (HPC)) is reported as 116 % of control and 123 % of control. The T/C (endpoint: median survival time, dose: 100.0 mg/kg/injection, schedule: Q01DX005 (ip), vehicle: Klucel (hydroxypropylcellulose) (HPC)) was 116 % of control and the T/C (endpoint: median survival time, dose: 400.0 mg/kg/injection, schedule: Q01DX005 (ip), vehicle: Klucel (hydroxypropylcellulose) (HPC)) was 164 % of control.

In the case of `Cc1c([N+](=O)[O-])cc(Cl)n[n+]1[O-]`, the T/C (endpoint: mean survival time, dose: 3.13 mg/kg/injection, schedule: Q04DX002 (ip), vehicle: saline with Tween-80) is reported as 101 % of control, the T/C (endpoint: mean survival time, dose: 6.25 mg/kg/injection, schedule: Q04DX002 (ip), vehicle: saline with Tween-80) is reported as 97 % of control and the T/C (endpoint: mean survival time, dose: 12.5 mg/kg/injection, schedule: Q04DX002 (ip), vehicle: saline with Tween-80) is reported as 96 % of control.

`COC(=O)CCCCCCCCCC(=O)OC` was tested, and the T/C (endpoint: mean survival time, dose: 100.0 mg/kg/injection, schedule: Q04DX002 (ip), vehicle: saline with Tween-80) was 87 % of control, the T/C (endpoint: mean survival time, dose: 200.0 mg/kg/injection, schedule: Q04DX002 (ip), vehicle: saline with Tween-80) was 102 % of control and the T/C (endpoint: mean survival time, dose: 400.0 mg/kg/injection, schedule: Q04DX002 (ip), vehicle: saline with Tween-80) was 98 % of control.

In the case of `CN1CCC(O)(O)C(Br)C1` (stereo not given), the T/C (endpoint: mean survival time, dose: 18.8 mg/kg/injection, schedule: Q01DX009 (ip), vehicle: saline) is reported as 98 % of control, the T/C (endpoint: mean survival time, dose: 18.8 mg/kg/injection, schedule: Q04DX003 (ip), vehicle: saline) is reported as 102 % of control and the T/C (endpoint: mean survival time, dose: 37.5 mg/kg/injection, schedule: Q01DX009 (ip), vehicle: saline) is reported as 100 % of control. The T/C (endpoint: mean survival time, dose: 37.5 mg/kg/injection, schedule: Q04DX003 (ip), vehicle: saline) was 106 % of control, the T/C (endpoint: mean survival time, dose: 75.0 mg/kg/injection, schedule: Q01DX001 (ip), vehicle: saline) was 102 % of control and the T/C (endpoint: mean survival time, dose: 75.0 mg/kg/injection, schedule: Q01DX009 (ip), vehicle: saline) was 88 % of control. For the same compound, the T/C (endpoint: mean survival time, dose: 75.0 mg/kg/injection, schedule: Q04DX003 (ip), vehicle: saline) was 100 % of control.

In the case of `CN(C)c1ccc(C(=O)OOOOC(c2ccc(N(C)C)cc2)(c2ccc(N(C)C)cc2)c2ccc(N(C)C)cc2)cc1`, the T/C (endpoint: mean survival time, dose: 50.0 mg/kg/injection, schedule: Q01DX001 (ip), vehicle: saline) is reported as 95 % of control, the T/C [1] is reported as 95 % of control and the T/C [2] is reported as 107 % of control. The T/C [3] was 89 % of control.

For `c1ccc2c(NC3=NCCO3)c3ccccc3nc2c1`, the T/C (endpoint: mean survival time, dose: 12.5 mg/kg/injection, schedule: Q04DX003 (ip), vehicle: saline with Tween-80) was 93 % of control and the T/C (endpoint: mean survival time, dose: 25.0 mg/kg/injection, schedule: Q04DX003 (ip), vehicle: saline with Tween-80) was 96 % of control.

With `COc1cc2cc[n+](C)cc2cc1OC` the T/C (endpoint: mean survival time, dose: 25.0 mg/kg/injection, schedule: Q01DX009 (ip), vehicle: water) was 98 % of control, the T/C (endpoint: mean survival time, dose: 50.0 mg/kg/injection, schedule: Q01DX009 (ip), vehicle: water) was 103 % of control and the T/C (endpoint: mean survival time, dose: 100.0 mg/kg/injection, schedule: Q01DX009 (ip), vehicle: water) was 101 % of control.

With `CSc1nc2c(c(=O)[nH]1)c1c(N)ncnc1n2C1OC(CO)C(O)C1O` (stereo not given) the T/C (endpoint: mean survival time, dose: 25.0 mg/kg/injection, schedule: Q01DX005 (ip), vehicle: water) was 88 % of control, the T/C (endpoint: mean survival time, dose: 50.0 mg/kg/injection, schedule: Q01DX005 (ip), vehicle: water) was 94 % of control and the T/C (endpoint: mean survival time, dose: 100.0 mg/kg/injection, schedule: Q01DX005 (ip), vehicle: water) was 88 % of control. For the same compound, the T/C (endpoint: mean survival time, dose: 200.0 mg/kg/injection, schedule: Q01DX005 (ip), vehicle: water) was 100 % of control.

`CN(N=O)C(=O)NC1C(CO)OC(n2ccc(=O)[nH]c2=O)C1O` (stereo not given) was tested, and the T/C (endpoint: mean survival time, dose: 13.0 mg/kg/injection, schedule: Q01DX001 (ip), vehicle: saline) was 105 % of control, the T/C (endpoint: mean survival time, dose: 20.0 mg/kg/injection, schedule: Q01DX001 (ip), vehicle: saline) was 107 % of control and the T/C (endpoint: mean survival time, dose: 30.0 mg/kg/injection, schedule: Q01DX001 (ip), vehicle: saline) was 110 % of control. For the same compound, the T/C (endpoint: mean survival time, dose: 44.0 mg/kg/injection, schedule: Q01DX001 (ip), vehicle: saline) was 111 % of control, the T/C (endpoint: mean survival time, dose: 67.0 mg/kg/injection, schedule: Q01DX001 (ip), vehicle: saline) was 107 % of control and the T/C [1] was 122 % of control. For the same compound, the T/C (endpoint: mean survival time, dose: 150.0 mg/kg/injection, schedule: Q01DX001 (ip), vehicle: saline) was 121 % of control.

`O=C1CC2C3C=CC(C12)C1C(=O)OC(=O)C31` (stereo not given) was tested, and the T/C [4] was 107 % of control, the T/C [5] was 98 % of control and the T/C (endpoint: mean survival time, dose: 400.0 mg/kg/injection, schedule: Q04DX003 (ip), vehicle: saline) was 91 % of control.
